Paper PMC11990924, “Inhibition of Tyrosinase and Melanogenesis by Carboxylic Acids: Mechanistic Insights and Safety Evaluation” (Molecules, 2025)

System: B16-F10 cells
Experiment: Proteomic analysis of B16-F10 cells (DIA mass spectrometry)
Assay type: cell-based, mouse
Conditions: 6 mM vs control; Table S4
Procedure: B16-F10 cells were treated with various concentrations of carboxylic acids following the same culture protocol used for melanin inhibition assays. After treatment, the cells were collected and submitted to Shanghai Zhongke Xinming Biotechnology Co., Ltd. (Shanghai, China) for proteomics analysis. The collected cells were lysed with an appropriate volume of SDT lysis buffer (4% SDS, 100 mM Tris-HCl, pH 7.6) to extract proteins. DTT was added to reduce disulfide bonds, followed by incubation at room temperature for 1 h. Subsequently, iodoacetamide was added, and the mixture was reacted in the dark at room temperature for 30 min. The proteins were then digested with trypsin overnight. The resulting peptide fragments were desalted using a C18 cartridge. After freeze-drying, the peptides were resuspended in 40 μL of 0.1% formic acid solution, and the peptide concentration was determined by measuring the absorbance at 280 nm. An appropriate amount of internal reference for targeted proteomics (iRT) standard peptides was added to each sample for data-independent acquisition (DIA) mass spectrometry analysis. Chromatographic separation was performed using a nanoflow Evosep One system. The separated samples were analyzed by DIA mass spectrometry using a timsTOF Pro mass spectrometer (Bruker Daltonics, Bremen, Germany). Detection was conducted in positive-ion mode, with MS and MS/MS scanning ranges set from 100 to 1700 m/z. MS2 data acquisition was performed in DIA mode, with four TIMS scan windows, each accumulating for 100 ms. In PASEF mode, the collision energy varied linearly with ion mobility (1/K0), ranging from 20 to 59 eV for ions with 1/K0 values between 0.85 and 1.30 Vs/cm^2. The DIA data were processed using Spectronaut 19 software with the following parameter settings: retention time prediction type set to dynamic iRT, interference correction on MS2 level enabled, cross-run normalization enabled, maximum missed cleavage sites set to 2, fixed modification set to Carbamidomethyl (C), and variable modifications set to Oxidation (M) and Acetyl (Protein N-term). All results were filtered with a Q-value cutoff of 0.01, corresponding to a false discovery rate (FDR) of less than 1%. The target protein set was annotated using Blast2GO (version BLASTP 2.8.0+). The process included four steps: sequence alignment (Blast), GO mapping, GO annotation, and additional annotation augmentation using InterProScan. Using the KOBAS 3.0 software, KEGG pathway annotation was performed on the target protein set. Fisher’s exact test was employed to compare the distribution of GO categories in the target protein set and the overall protein set, thereby conducting enrichment analysis of the GO annotations in the target protein set. The proteomics dataset generated in this study has been made publicly available through the PRIDE ProteomeXchange Consortium with the dataset identifier PXD061919.

With `O=C(O)CC(O)C(=O)O` (stereo not shown) [malic acid] the “Abhd14a protein fold change” value was 0.4947, the “Acvr1b protein fold change” value was 0.348 and the “Adgrg1 protein fold change” value was 0.3255. For the same molecule, the “Aplp2 protein fold change” value was 0.1925, the “App protein fold change” value was 0.309 and the “Arrdc3 protein fold change” value was 0.2723. The “Atp6ap2 protein fold change” value was 0.4615, the “Atxn2l protein fold change” value was 0.3743 and the “Bace2 protein fold change” value was 0.2949. The “CUB domain-containing protein (Q3TD85) fold change” value was 0.319, the “Cd151 protein fold change” value was 0.3796 and the “Cox6a1 protein fold change” value was 2.331. For the same molecule, the “Cpe protein fold change” value was 0.425, the “Cryab protein fold change” value was 0.4352 and the “Ctns protein fold change” value was 0.4962. The “Cxne protein fold change” value was 0.4043, the “Cyp51a1 protein fold change” value was 0.4596 and the “Dct protein fold change” value was 0.453. For the same molecule, the “Ddr1 protein fold change” value was 0.4956, the “Dgcr2 protein fold change” value was 0.4757 and the “Dhrsx protein fold change” value was 0.4224. The “E2f5 protein fold change” value was 2.052, the “Eng protein fold change” value was 0.4971 and the “Fam174b protein fold change” value was 0.4334. For the same molecule, the “Fau protein fold change” value was 4.207, the “Fip1l1 protein fold change” value was 0.4619 and the “Fth1 protein fold change” value was 2.2552. For the same molecule, the “Ftl1 protein fold change” value was 2.521, the “Ginm1 protein fold change” value was 0.2408 and the “Globin family profile domain-containing protein (Q8BPF4) fold change” value was 0.4868. The “Gpnmb protein fold change” value was 0.4267, the “H1-0 protein fold change” value was 2.091 and the “H1-1 protein fold change” value was 2.387. For the same molecule, the “Haghl protein fold change” value was 2.0913, the “Hbbt1 protein fold change” value was 0.3537 and the “Hist2h2aa1 protein fold change” value was 5.559. For the same molecule, the “Hspb1 protein fold change” value was 0.432, the “Ifitm2 protein fold change” value was 0.2473 and the “Ifitm3 protein fold change” value was 0.405. For the same molecule, the “Ifngr1 protein fold change” value was 0.477, the “Il10rb protein fold change” value was 0.279 and the “Il17ra protein fold change” value was 0.4348. For the same molecule, the “Itih3 protein fold change” value was 0.2609, the “Itm2b protein fold change” value was 0.1357 and the “Itm2c protein fold change” value was 0.2222. For the same molecule, the “Lama2 protein fold change” value was 2.748, the “Laptm4b protein fold change” value was 0.1099 and the “Ldlr protein fold change” value was 0.3286. For the same molecule, the “Lgmn protein fold change” value was 0.3573, the “Lmbrd1 protein fold change” value was 0.4382 and the “Map1lc3b protein fold change” value was 0.4627. The “Mapre2 protein fold change” value was 0.4775, the “Mfap3 protein fold change” value was 0.2203 and the “Mfge8 protein fold change” value was 0.4888. For the same molecule, the “Mlana protein fold change” value was 0.1802, the “Ndfip1 protein fold change” value was 0.1482 and the “Nrp1 protein fold change” value was 0.4816. For the same molecule, the “Nrp2 protein fold change” value was 0.3963, the “Nus1 protein fold change” value was 0.4939 and the “Pbx1 protein fold change” value was 2.038. For the same molecule, the “Pcdhgb2 protein fold change” value was 0.2826, the “Peli1 protein fold change” value was 0.4419 and the “Plekhb2 protein fold change” value was 0.4812. For the same molecule, the “Pmel protein fold change” value was 0.458, the “Ppp1r12b protein fold change” value was 2.498 and the “Psap protein fold change” value was 0.4952. The “Ptprs protein fold change” value was 0.4661, the “Pwwp3a protein fold change” value was 2.511 and the “Rhob protein fold change” value was 0.4341. For the same molecule, the “Rhoj protein fold change” value was 0.4834, the “Rnf130 protein fold change” value was 0.4325 and the “Sdcbp protein fold change” value was 0.4716. For the same molecule, the “Sema4b protein fold change” value was 0.4477, the “Sema6d protein fold change” value was 0.4605 and the “Sgce protein fold change” value was 0.2346. The “Sh3bp2 protein fold change” value was 0.3699, the “Slc4a2 protein fold change” value was 0.4141 and the “Slc24a5 protein fold change” value was 0.4133. For the same molecule, the “Slc38a2 protein fold change” value was 0.2034, the “Slc45a2 protein fold change” value was 0.4213 and the “Sppl2b protein fold change” value was 0.4857. For the same molecule, the “Spring1 protein fold change” value was 0.2636, the “Syt4 protein fold change” value was 0.1657 and the “Tax1bp1 protein fold change” value was 0.4715. The “Tcf7l1 protein fold change” value was 0.4286, the “Tgfbr1 protein fold change” value was 0.4711 and the “Tk1 protein fold change” value was 2.015. For the same molecule, the “Tmem59 protein fold change” value was 0.1062, the “Tmem176a protein fold change” value was 0.2285 and the “Tnfrsf1a protein fold change” value was 0.4638. For the same molecule, the “Tpp1 protein fold change” value was 0.3033, the “Tspan3 protein fold change” value was 0.3098 and the “Tspan6 protein fold change” value was 0.466. For the same molecule, the “Tspan10 protein fold change” value was 0.2722, the “Tspan14 protein fold change” value was 0.4171 and the “Tyr protein fold change” value was 0.3761. For the same molecule, the “Tyrp1 protein fold change” value was 0.2755, the “Ubl3 protein fold change” value was 0.2044 and the “Wfdc3 protein fold change” value was 0.3403. The “il6st protein fold change” value was 0.3637.
